Results on 1 compound are retold here after PMC11898290, “TFEB promotes Ginkgetin-induced ferroptosis via TRIM25 mediated GPX4 lysosomal degradation in EGFR wide-type lung adenocarcinoma” (Theranostics, 2025).

One assay deals with T1, TFEB (Homo sapiens, UniProt P19484).
T1 construct: TFEB protein amine-coupled on CM5 chip (about 6500 RU)
T1 sequence (P19484 1-476): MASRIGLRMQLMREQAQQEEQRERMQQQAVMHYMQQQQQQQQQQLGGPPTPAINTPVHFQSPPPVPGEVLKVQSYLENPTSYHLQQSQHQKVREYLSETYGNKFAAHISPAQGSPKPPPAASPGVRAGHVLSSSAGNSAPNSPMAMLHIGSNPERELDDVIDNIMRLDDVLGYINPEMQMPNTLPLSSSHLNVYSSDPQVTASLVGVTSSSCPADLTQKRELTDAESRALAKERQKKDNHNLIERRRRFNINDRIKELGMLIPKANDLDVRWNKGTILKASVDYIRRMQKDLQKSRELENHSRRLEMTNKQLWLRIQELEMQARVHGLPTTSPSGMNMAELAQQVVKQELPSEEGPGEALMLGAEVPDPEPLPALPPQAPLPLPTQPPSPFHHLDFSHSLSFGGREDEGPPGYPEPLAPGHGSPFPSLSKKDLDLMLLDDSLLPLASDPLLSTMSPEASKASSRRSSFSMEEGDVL
In words: SPR, Biacore S200, CM5 chip, steady-state fit. The class given is binding. The following applies: 10 mM HEPES pH 7.4, 150 mM NaCl, 0.05% P20, 2% DMSO, 25 °C; GK 0.137-100 µM. (In general: SPR reads the build-up and loss of mass on a sensor chip optically.)

The target in assay [1] is T2, TFEB-GFP (pcDNA3.1-TFEB-GFP) (Homo sapiens, UniProt P19484).
T2 sequence (P19484 1-476): T1 sequence (P19484 1-476)
In words: microscale thermophoresis, GFP-fusion in cell lysate. The class given is binding. For orientation: In MST a laser heats a spot of the sample, and binding alters the fluorescence response.

As to `COc1cc(O)c2c(=O)cc(-c3ccc(OC)c(-c4c(O)cc(O)c5c(=O)cc(-c6ccc(O)cc6)oc45)c3)oc2c1` [ginkgetin], the figures for the Kd entry (on TFEB; in assay [1]) were “The binding affinity of GK to TFEB was determined by the SPR assay” and 28 µM, respectively.

For orientation: Kd means the equilibrium constant for the complex coming apart.
